Assay results from patent US20140127235A1, “TARGETING HK alpha FOR CONTROLLING BLOOD PRESSURE AND REGULATING ELECTROLYTE BALANCE” (UNIVERSITY OF FLORIDA RESEARCH FOUNDATION, INC., priority 2011, published 2014).

Legend:
Type in all cases: in vivo, mouse
[1] = Time course of the physiological effect of DOCP treatment in wild type mice (body weight, blood electrolytes); conditions: for Change in BW (%) / Blood [Cl−] / Blood [HCO3−] / Blood [K+] / Blood [Na+]: wild type mice; for Change in BW (%): DOCP 1.7 mg i.m.
Procedure: A primary goal of the study was to characterize the temporal changes in body weight, Na^+, K^+, and acid-base homeostasis during chronic mineralocorticoid excess. Body weight and blood electrolytes were measured over an eight day time course in untreated (control) mice and those treated with DOCP (1.7 mg) (Table 1).
(§1) Mice were fed normal lab chow, given free access to water, and given an i.m. injection of 1.7 mg DOCP (Percorten V, Novartis Pharmaceuticals). For perfusion and expression studies, mice were sacrificed with Na^+ pentobarbital (i.p. 120 mg/kg) followed by cervical dislocation. For time course experiments, another group of animals were anesthetized with 3-4% isoflurane and aortic blood was collected into a heparinized syringe for immediate analysis of electrolytes and blood gases (Nova pHOx Plus analyzer, Nova Biomedical). For high K^+ diet studies, mice were given a normal, powdered diet (TD99131, Teklad) supplemented with KCl to equal 5% K^+ which was then made as a gel. Half of the mice were treated with DOCP. Blood and tissues were collected as in the time course experiments. For urinalysis experiments, mice were housed in metabolic cages for thirteen days and fed a normal gel diet with free access to a water bottle. On day five, mice were treated with DOCP as above. Urine and feces were collected daily. Urine electrolytes were measured on a clinical analyzer (Nova 16 analyzer, Nova Biomedical) and fecal electrolytes were measured on a digital flame photometer (Model 2655-00, Cole-Parmer).

[2] = system: HKα1 mRNA; experiment: Real time PCR of renal HKα1 mRNA expression in DOCP-treated mice; conditions: cortex, outer medulla and inner medulla, eight days after DOCP, normal diet
Source text: The principal mechanism of mineralocorticoid action is through modulation of target gene transcription.^15 Therefore, the next experiments evaluated the effect of DOCP on renal HKα1 and HKα2 mRNA expression. Real time quantitative PCR was used to investigate changes in steady state mRNA levels of H^+,K^+-ATPase α subunits, HKα1 and HKα2, in cortex, outer medulla, and inner medulla of control and DOCP-treated mice.
RNA was recovered from cortex, medulla, and inner medulla with TRIzol reagent (Invitrogen). RNA was treated with DNase 1 (Ambion DNA Free) and converted to cDNA using SuperScript III (Invitrogen). For real time quantitative PCR, 20 ng cDNA was used to quantify mRNA expression with TaqMan Gene Expression (Applied Biosystems) primer/probe sets for HKα1 (Atp4a, Mm00444423_m1), HKα2 (Atp12a, Mm0131809_m1), and β-actin (Actb, Mm00607939_s1). Cycle threshold (Ct) values were normalized to β-actin, and relative expression (control set to 100%) was calculated by the ΔΔCt method.^28

[3] = Effect of high K+ (5%) diet on physiological response of wild type mice to DOCP treatment; conditions: eight days after DOCP
Procedure: Deficits in K^+ homeostasis have long been known to stimulate H^+,K^+-ATPase activity and HKα subunit expression. […] For this experiment, mice were fed a high K^+ diet and then left untreated (control) or given DOCP treatment. Body weight and blood electrolytes were measured eight days after treatment and kidneys were collected for analysis of HKα, and HKα2 mRNA expression by real time PCR.
as §1

[4] = DOCP treatment of wild type, HKα1−/− and HKα1,2−/− mice: body weight, blood electrolytes, urinary and fecal electrolyte excretion
Source text: In a separate study, the effect of DOCP treatment of body weight change, blood electrolytes, and urinary and fecal electrolyte excretion was examined in wild type, HKα1^−/−, and HKα1,2^−/− mice on a normal diet.
In the context of whole animal physiology, it is important to examine the overall electrolyte balance as the […] of urinary and fecal excretion subtracted from the intake of that electrolyte.
as §1

[5] = Survival of DOCP-treated WT and HKα1,2−/− mice over 60 days; conditions: two injections of DOCP on day zero and day 57
Source text: These animals all received two injections of DOCP on day zero and day 57. Four of the HKα1,2^−/− mice died at day's nine 46, 47, and 59 for an overall survival at 60 days of 57% for the HKα1,2^−/− mice whereas there were no deaths in the nine WT animals X^2 (log-rank): 4.554 (P<0.05).

With `CC(C)(C)C(=O)OCC(=O)[C@H]1CC[C@H]2[C@@H]3CCC4=CC(=O)CC[C@]4(C)[C@H]3CC[C@]12C` [DOCP, desoxycorticosterone pivalate] the “Change in BW (%)” value ([1]; Day 2) was 0.06 ± 1.2 (7) %, the “Change in BW (%)” value ([1]; Day 4) was 2.0 ± 1.2 (7) % and the “Change in BW (%)” value ([1]; Day 6) was 5.4 ± 1.4 (7)**^,† %. The “Change in BW (%)” value ([1]; Day 8) was 6.1 ± 1.2 (7)**^,† %, the “Blood [Cl−]” value ([1]; Day 2 of DOCP) was 120 ± 1.8 (3) mM and the “Blood [HCO3−]” value ([1]; Day 2 of DOCP) was 19 ± 0.87 (4) mM. For the same compound, the “Blood [K+]” value ([1]; Day 2 of DOCP) was 3.5 ± 0.12 (4) mM, the “Blood [Na+]” value ([1]; Day 2 of DOCP) was 150 ± 1.3 (3) mM and the “Blood [Cl−]” value ([1]; Day 4 of DOCP) was 116 ± 0.95 (4) mM. The “Blood [HCO3−]” value ([1]; Day 4 of DOCP) was 20 ± 1.2 (4) mM, the “Blood [K+]” value ([1]; Day 4 of DOCP) was 3.5 ± 0.17 (4) mM and the “Blood [Na+]” value ([1]; Day 4 of DOCP) was 153 ± 1.8 (4) mM. For the same compound, the “Blood [Cl−]” value ([1]; Day 6 of DOCP) was 117 ± 0.35 (3) mM, the “Blood [HCO3−]” value ([1]; Day 6 of DOCP) was 20 ± 0.53 (3) mM and the “Blood [K+]” value ([1]; Day 6 of DOCP) was 2.9 ± 0.21 (3) mM. For the same compound, the “Blood [Na+]” value ([1]; Day 6 of DOCP) was 153 ± 0.80 (3) mM, the “Blood [Cl−]” value ([1]; Day 8 of DOCP) was 111 ± 0.82 (3)*^,**^,†,‡ mM and the “Blood [HCO3−]” value ([1]; Day 8 of DOCP) was 23 ± 2.0 (3) mM. For the same compound, the “Blood [K+]” value ([1]; Day 8 of DOCP) was 2.8 ± 0.07 (3)*^,† mM, the “Blood [Na+]” value ([1]; Day 8 of DOCP) was 150 ± 0.41 (3) mM and the “decrease in blood [Cl−]” value ([1]; wild-type mice, eight days of DOCP treatment) was “approximately 7 mM”. The “HKα1 mRNA expression compared to control” value [2] was “not significantly altered”, the “Blood [Cl−]” value [3] was 121 ± 1.30 mM and the “Blood [HCO3−]” value [3] was 18.2 ± 1.01 mM. For the same compound, the “Blood [K+]” value [3] was 4.30 ± 0.18 mM, the “Blood [Na+]” value [3] was 151 ± 0.88 mM and the Body weight change [3] was -0.17 ± 0.27 g. For the same compound, the “effect of DOCP to decrease blood [Cl−] and increase blood [HCO3−]” value ([4]; HKα1,2−/− mice, day eight) was “eliminated”, the “K+ retention, less than wild type mice with DOCP treatment” value ([4]; HKα1,2−/− mice, day eight, overall balance) was ~40% and the “Overall Na+ retention versus wild type or HKα1−/− mice” value ([4]; HKα1,2−/− mice, eighth day of DOCP treatment) was “significantly less”. For the same compound, the “increase of fecal K+ loss with DOCP treatment” value ([4]; HKα1−/− and HKα1,2−/− mice, versus control period) was ~50%, the “Urine volume by the end of DOCP treatment” value ([4]; HKα1−/− mice) was “considerably decreased” and the “DOCP-induced body weight gain relative to wild type” value ([4]; HKα1−/− mice, day eight, normal diet) was “augmented nearly two-fold”. For the same compound, the “dry stool weight, more than wild type or HKα1,2−/− mice when treated with DOCP” value ([4]; HKα1−/− mice, pair fed) was 50%, the “Urine volume by the end of DOCP treatment” value ([4]; wild type and HKα1,2−/− mice) was “doubled” and the “overall Na+ balance with DOCP treatment” value ([4]; wild type mice) was “increased”. For the same compound, the “overall survival at 60 days” value ([5]; HKα1,2−/− mice (seven)) was 57% and the “deaths over 60 days” value ([5]; nine WT mice) was “no deaths”.
